Tests used:
Test in all cases: relative viability (nuclei count vs DMSO), 5 days (fraction); higher = more cells survive
EPLC-272H = test system: EPLC-272H
In short: (§1)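 Values are medians from duplicate plates. Each reflects relative viability, defined as the nuclei count of treated wells over that of vehicle wells. Lung cancer cell lines in 1536-well plates were pin-tool dosed one day after seeding with one drug alone or with a fixed anchor-drug dose plus five library-drug doses (not always all listed) in √10 steps, then fixed, stained and imaged at 4× after 5 days.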

H3255 = test system: H3255
In short: as §1

HARA = test system: HARA
In short: as §1

LC-2-ad = test system: LC-2-ad
In short: as §1

LOU-NH91 = test system: LOU-NH91
In short: as §1

NCI-H1650 = test system: NCI-H1650
In short: as §1

NCI-H1651 = test system: NCI-H1651
In short: as §1

NCI-H1975 = test system: NCI-H1975
In short: as §1

NCI-H2009 = test system: NCI-H2009
In short: as §1

NCI-H2023 = test system: NCI-H2023
In short: as §1

NCI-H2085 = test system: NCI-H2085
In short: as §1

NCI-H2087 = test system: NCI-H2087
In short: as §1

NCI-H2170 = test system: NCI-H2170
In short: as §1

NCI-H2228 = test system: NCI-H2228
In short: as §1

NCI-H23 = test system: NCI-H23
In short: as §1

NCI-H441 = test system: NCI-H441
In short: as §1

NCI-H650 = test system: NCI-H650
In short: as §1

NCI-H727 = test system: NCI-H727
In short: as §1

NCI-H838 = test system: NCI-H838
In short: as §1

PC-3 [JPC-3] = test system: PC-3 [JPC-3]
In short: as §1

SW 1573 = test system: SW 1573
In short: as §1

SW 900 = test system: SW 900
In short: as §1

UMC-11 = test system: UMC-11
In short: as §1

CN1CCN(CCOc2cc(OC3CCOCC3)c3c(Nc4c(Cl)ccc5c4OCO5)ncnc3c2)CC1 [Saracatinib] + O=C(c1cc(Cc2n[nH]c(=O)c3ccccc23)ccc1F)N1CCN(C(=O)C2CC2)CC1 [Olaparib] (partner 8 µM)
relative viability (EPLC-272H; first compound 0.02 µM): 0.946
relative viability (EPLC-272H; first compound 0.2 µM): 0.714
relative viability (EPLC-272H; first compound 0.6325 µM): 0.658
relative viability (EPLC-272H; first compound 2 µM): 0.426
relative viability (H3255; first compound 0.02 µM): 0.623
relative viability (H3255; first compound 0.2 µM): 0.496
relative viability (H3255; first compound 0.6325 µM): 0.593
relative viability (H3255; first compound 2 µM): 0.301
relative viability (HARA; first compound 0.02 µM): 0.891
relative viability (HARA; first compound 0.2 µM): 0.631
relative viability (HARA; first compound 0.6325 µM): 0.878
relative viability (HARA; first compound 2 µM): 0.311
relative viability (LC-2-ad; first compound 0.02 µM): 0.773
relative viability (LC-2-ad; first compound 0.2 µM): 0.636
relative viability (LC-2-ad; first compound 0.6325 µM): 0.723
relative viability (LC-2-ad; first compound 2 µM): 0.705
relative viability (LOU-NH91; first compound 0.02 µM): 0.862
relative viability (LOU-NH91; first compound 0.2 µM): 0.711
relative viability (LOU-NH91; first compound 0.6325 µM): 0.73
relative viability (LOU-NH91; first compound 2 µM): 0.613
relative viability (NCI-H1650; first compound 0.02 µM): 0.784
relative viability (NCI-H1650; first compound 0.2 µM): 0.636
relative viability (NCI-H1650; first compound 0.6325 µM): 0.624
relative viability (NCI-H1650; first compound 2 µM): 0.569
relative viability (NCI-H1651; first compound 0.02 µM): 0.191
relative viability (NCI-H1651; first compound 0.2 µM): 0.16
relative viability (NCI-H1651; first compound 0.6325 µM): 0.162
relative viability (NCI-H1651; first compound 2 µM): 0.165
relative viability (NCI-H1975; first compound 0.02 µM): 0.787
relative viability (NCI-H1975; first compound 0.2 µM): 0.793
relative viability (NCI-H1975; first compound 0.6325 µM): 0.804
relative viability (NCI-H1975; first compound 2 µM): 0.517
relative viability (NCI-H2009; first compound 0.02 µM): 0.709
relative viability (NCI-H2009; first compound 0.2 µM): 0.477
relative viability (NCI-H2009; first compound 0.6325 µM): 0.688
relative viability (NCI-H2009; first compound 2 µM): 0.724
relative viability (NCI-H2023; first compound 0.02 µM): 0.503
relative viability (NCI-H2023; first compound 0.6325 µM): 0.417
relative viability (NCI-H2023; first compound 2 µM): 0.393
relative viability (NCI-H2085; first compound 0.02 µM): 0.802
relative viability (NCI-H2085; first compound 0.2 µM): 0.602
relative viability (NCI-H2085; first compound 0.6325 µM): 0.821
relative viability (NCI-H2085; first compound 2 µM): 0.863
relative viability (NCI-H2087; first compound 0.02 µM): 0.485
relative viability (NCI-H2087; first compound 0.2 µM): 0.449
relative viability (NCI-H2087; first compound 0.6325 µM): 0.552
relative viability (NCI-H2087; first compound 2 µM): 0.515
relative viability (NCI-H2170; first compound 0.02 µM): 0.597
relative viability (NCI-H2170; first compound 0.2 µM): 0.539
relative viability (NCI-H2170; first compound 0.6325 µM): 0.558
relative viability (NCI-H2170; first compound 2 µM): 0.524
relative viability (NCI-H2228; first compound 0.02 µM): 0.966
relative viability (NCI-H2228; first compound 0.2 µM): 0.617
relative viability (NCI-H2228; first compound 0.6325 µM): 0.475
relative viability (NCI-H2228; first compound 2 µM): 0.568
relative viability (NCI-H23; first compound 0.02 µM): 0.386
relative viability (NCI-H23; first compound 0.6325 µM): 0.391
relative viability (NCI-H23; first compound 2 µM): 0.23
relative viability (NCI-H441; first compound 0.02 µM): 0.57
relative viability (NCI-H441; first compound 0.2 µM): 0.536
relative viability (NCI-H441; first compound 0.6325 µM): 0.634
relative viability (NCI-H441; first compound 2 µM): 0.532
relative viability (NCI-H650; first compound 0.02 µM): 0.353
relative viability (NCI-H650; first compound 0.2 µM): 0.442
relative viability (NCI-H650; first compound 0.6325 µM): 0.429
relative viability (NCI-H650; first compound 2 µM): 0.432
relative viability (NCI-H727; first compound 0.02 µM): 0.687
relative viability (NCI-H727; first compound 0.2 µM): 0.51
relative viability (NCI-H727; first compound 0.6325 µM): 0.534
relative viability (NCI-H727; first compound 2 µM): 0.578
relative viability (NCI-H838; first compound 0.02 µM): 0.776
relative viability (NCI-H838; first compound 0.2 µM): 0.643
relative viability (NCI-H838; first compound 0.6325 µM): 0.656
relative viability (NCI-H838; first compound 2 µM): 0.505
relative viability (PC-3 [JPC-3]; first compound 0.02 µM): 1.19
relative viability (PC-3 [JPC-3]; first compound 0.2 µM): 0.993
relative viability (PC-3 [JPC-3]; first compound 0.6325 µM): 0.746
relative viability (PC-3 [JPC-3]; first compound 2 µM): 0.55
relative viability (SW 1573; first compound 0.02 µM): 0.502
relative viability (SW 1573; first compound 0.2 µM): 0.382
relative viability (SW 1573; first compound 0.6325 µM): 0.448
relative viability (SW 1573; first compound 2 µM): 0.384
relative viability (SW 900; first compound 0.02 µM): 0.831
relative viability (SW 900; first compound 0.2 µM): 0.753
relative viability (SW 900; first compound 0.6325 µM): 0.784
relative viability (SW 900; first compound 2 µM): 0.643
relative viability (UMC-11; first compound 0.02 µM): 0.42
relative viability (UMC-11; first compound 0.2 µM): 0.306
relative viability (UMC-11; first compound 0.6325 µM): 0.362
relative viability (UMC-11; first compound 2 µM): 0.351

Source: the supplement of paper PMC10307832
